# Columns and labels:
# [1] = test system: KB cells (human pharyngeal SCC); assay: Effect of POR alone on KB tumor volume in nude mice (Example IV); format: in vivo; conditions: POR alone 2.50, 5.0, 7.5, 10.0 mg/kg ip vs saline control; days 0-13; FIG. 1
# Protocol: KB cells (human pharyngeal SCC, American Type Culture Collection, Rockville, Md.) were maintained in culture medium consisting of 90% Minimal Essential medium (Gibco BRL, Grand Island, N.Y.) and 10% fetal bovine serum (Hyclone, Logan, Utah) with the addition of 10 nM nonessential amino acid (Gibco BRL) and antibiotics (penicillin, streptomycin: Gibco BRL). The cells were grown as monolayers in Falcon T150 flasks (Becton Dickinson, Franklin Lakes, N.J.) in a 37° C. humidified incubator with 5% CO2.
# The effect of treatment on tumor volumes was determined using analysis of variance. […]
# Fifteen mice, each with 4 tumor inoculations, were divided into 4 treatment groups and 1 control group. […] The 3 orthogonal diameters of the tumors were measured at days 0, 2, 4, 6, 8, 10, and 13 following POR injection. […]
# [2] = test system: KB cells (human pharyngeal SCC); assay: POR with PDL limited to tumor area, KB tumors in nude mice (Example V); format: in vivo; conditions: for effect of treatment on mean tumor volume (analysis of variance): repeated two days later, FIG. 2
# Protocol: (§1) KB cells (human pharyngeal SCC, American Type Culture Collection, Rockville, Md.) were maintained in culture medium consisting of 90% Minimal Essential medium (Gibco BRL, Grand Island, N.Y.) and 10% fetal bovine serum (Hyclone, Logan, Utah) with the addition of […] nonessential amino acid (Gibco BRL) and antibiotics (penicillin, streptomycin: Gibco BRL). The cells were grown as monolayers in Falcon T150 flasks (Becton Dickinson, Franklin Lakes, N.J.) in a 37° C. humidified incubator with 5% CO2.
# (§2) Prior to inoculation, the cells were rinsed with PBS lacking calcium and magnesium (Gibco BRL), trypsinized (Gibco BRL), counted, centrifuged at 1000 rpm for 6 min., and resuspended in normal saline for a final concentration of 1,000,000 cells/ml.
# (§3) Six- to seven-week-old nude mice (Charles River Labs, Wilmington, Mass.) were sterilely housed and fed ad libitum. Intradermal inoculation of 0.05 ml of cell suspension (50,000 cells) was performed under general anesthesia (ether) using a 30 gauge hypodermic needle. After 5 days, the majority of the tumors were visually apparent and palpable.
# (§4) The effect of treatment on tumor volumes was determined using analysis of variance. Multiple comparisons were performed using the Student-Newman-Keuls (SNK) test. P values less than 0.05 are considered significant.
# Sixteen mice, each with 4 tumor inoculations, were divided into 3 treatment groups and 1 control group. On day 6 following tumor inoculation, the treatment groups received (1) ip POR only (10 mg/kg), (2) ip saline and PDL limited to tumor area (585 nm, 10 J/cm^2, 300-500 μs; Model SPTL-1a, Candela Corporation, Wayland, Mass.), or (3) ip POR (10 mg/kg) and PDL limited to the tumor area (585 nm, 10 J/cm^2, 300-500 μs). The control group received ip saline injections only. PDL irradiation was performed 15 min. after administration of POR or vehicle, using a laser handpiece that produced a 5 mm diameter irradiated spot with a uniform energy distribution on the tumor surface. An aluminum plate with holes of various diameters was used to shield areas beyond the tumor border. […]
# [3] = test system: KB cells (human pharyngeal SCC); assay: POR with PDL extending beyond tumor area, KB tumors in nude mice (Example VI); format: in vivo
# Protocol: as §1, §2, §3, §4
# Twelve mice with 6 tumor inoculations were divided into 3 treatment groups and 1 control group. On day 5 following inoculation, the 4 groups were treated as in Example V except that the field of irradiation was extended to include a 2 to 3 mm periphery beyond the tumor edge. In addition, on the second treatment day, the fluence was raised from 10 to 15 J/cm^2. Tumor volume measurements were performed on days 0, 2, 4, 6, 8, 10, and 12 following the first treatment. Mice were weighed on day 0 and 6 following the first treatment. There were two anesthesia related deaths: one mouse from the control group and one mouse from the group receiving both PDL and POR died before day 10 and were therefore excluded from analysis.
# normal skin tissue = assay: POR with PDL treatment of normal skin tissue, histologic evaluation (Example VII); format: in vivo, Syrian golden hamsters; conditions: PDL 15 min. after ip POR; biopsies 10 min. or 2 days after irradiation; hamster flank
# Protocol: The effect on normal skin tissue of PDL irradiation with or without POR was determined using 6 adult Syrian golden hamsters. The hamsters were divided into two groups, and hair of each animal was shaved from an area of the flank. One group was irradiated with the PDL 15 min. after ip injection of POR, and the other group was irradiated without POR administration. Biopsies of treated sites were taken 10 min. or 2 days after irradiation. Specimens were fixed with formalin, embedded in paraffin, sectioned, and stained (H&E) for histologic evaluation.
# [4] = test system: human squamous cancer cells; assay: PDL and POR on human squamous cancer cell tumors in hamster cheek pouch (Example VIII); format: in vivo, hamsters; conditions: combined PDL (588 nm) and POR versus PDL only, FIG. 5
# Excerpt: In this example, tumors were produced in the cheek pouches of hamsters by transplantation of human squamous cancer cells according to methods well known in the art. Hamsters were divided into four treatment groups: (1) control, (2) bioreductive agent porfiromycin only (POR), (3) 588 nm pulsed dye laser only (PDL), and (4) combined PDL and POR.
# hypoxic cells = conditions: compared with mitomycin C; cited from earlier work
# [5] = Body weight / systemic toxicity monitoring of POR in tumor-bearing mice (Example IV); conditions: POR 2.50-10.0 mg/kg ip; mice weighed days 0-13
# Protocol: Fifteen mice, each with 4 tumor inoculations, were divided into 4 treatment groups and 1 control group. Five days after tumor inoculation, the 4 treatment groups received 2.50, 5.0, 7.5, and 10.0 mg/kg intraperitoneal (ip) injections of POR (Vion Pharmaceuticals, Inc., New Haven, Conn.) dissolved in sterile water. […] All mice were anesthetized during ip injections and tumor measurements. […] The mice were weighed at the time of each tumor measurement to monitor for any systemic toxicity of POR.
structure (smiles),measurement,setting,value
"CO[C@@]12[C@H](COC(N)=O)C3=C(C(=O)C(C)=C(N)C3=O)N1C[C@H]1[C@@H]2N1C (stereo partly drawn) [POR, porfiromycin]",effect of treatment on mean tumor volume (analysis of variance),[1],no significant effect of treatment at any point in time
same,effect of treatment on mean tumor volume (analysis of variance),"[2]; ip POR 10 mg/kg and PDL limited to tumor area (585 nm, 10 J/cm^2)",no significant effect of treatment at any point in time
same,skin sloughing / epithelial necrosis in laser treatment groups,"[2]; ip POR 10 mg/kg and PDL limited to tumor area, gross and histological",no gross evidence of skin sloughing or any histological evidence of epithelial necrosis
same,effect of treatment on mean tumor volume (analysis of variance),"[2]; ip POR only 10 mg/kg, days 0-13",no significant effect of treatment at any point in time
same,tumor volume versus controls (SNK test),"[3]; POR 10 mg/kg ip with PDL including 2 to 3 mm margin (10 then 15 J/cm^2), all tumors, FIG. 3",differed from the controls from day 6 onward
same,tumor volume versus controls (SNK test),"[3]; POR alone 10 mg/kg ip, all tumors, FIG. 3",differed from the controls from day 6 onward
same,"tumor volume, PDL with POR versus PDL without POR","[3]; all tumors, PDL including tumor margin, FIG. 3",no significance between the effects of PDL irradiation with and without POR at any time
same,"tumor volume, PDL with POR versus PDL without POR (SNK test)","[3]; only the largest 33% of tumors on day 0, PDL including tumor margin, FIG. 4",significant difference between PDL with and without POR at all days after day 6
same,damage to normal skin after PDL irradiation (histologic and clinical),normal skin tissue,no microscopic or clinical evidence of epithelial necrosis or other damage to tissue structures beyond the blood vessels
same,tumor regression and remission,[4],tumor regression and remission following laser vascular targeting is enhanced
same,preferential toxicity for hypoxic cells,hypoxic cells,greater for POR than mitomycin C
same,effect of treatment on body weight / acute toxicity,[5],"no significant effect of treatment on body weight, or any other indication of acute toxicity"

# Reference: patent publication US20010034319A1, “Photothermal vascular targeting with bioreductive agents” (priority 1999, published 2001)
